Experiment [1] has as its target Sigma intracellular receptor 2 (Homo sapiens, UniProt Q5BJF2). Briefly: PDSP Secondary Binding target: TMEM97 - Compounds are tested at 10 uM concentration, plate are incubated at room temperature in the dark for 90 minutes. Reaction are stopped by vacuum filtration onto 0.3% polyethyleneimine soaked filter mats using Filtermate harvester. Scintillation cocktail is then melted onto microwave-dried filters on a hot plate and the radio activity is counted in Microbia counter.

The target in another experiment is Translocator protein (Homo sapiens, UniProt P30536). Briefly: PDSP Secondary Binding target: TSPO - Compounds are tested at 10 uM concentration, plate are incubated at room temperature in the dark for 90 minutes. Reaction are stopped by vacuum filtration onto 0.3% polyethyleneimine soaked filter mats using Filtermate harvester. Scintillation cocktail is then melted onto microwave-dried filters on a hot plate and the radio activity is counted in Microbia counter.
Sequence of Translocator protein (P30536 whole entry): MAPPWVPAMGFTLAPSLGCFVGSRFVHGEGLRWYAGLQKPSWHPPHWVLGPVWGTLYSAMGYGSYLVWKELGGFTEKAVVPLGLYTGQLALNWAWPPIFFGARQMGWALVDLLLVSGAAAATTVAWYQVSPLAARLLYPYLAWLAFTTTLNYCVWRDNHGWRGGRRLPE

The target in experiment [2] is Beta-2 adrenergic receptor (Homo sapiens, UniProt P07550). In words: PDSP Secondary Binding target: ADRB2 - Compounds are tested at 10 uM concentration, plate are incubated at room temperature in the dark for 90 minutes. Reaction are stopped by vacuum filtration onto 0.3% polyethyleneimine soaked filter mats using Filtermate harvester. Scintillation cocktail is then melted onto microwave-dried filters on a hot plate and the radio activity is counted in Microbia counter.
Sequence of Beta-2 adrenergic receptor (P07550 whole entry): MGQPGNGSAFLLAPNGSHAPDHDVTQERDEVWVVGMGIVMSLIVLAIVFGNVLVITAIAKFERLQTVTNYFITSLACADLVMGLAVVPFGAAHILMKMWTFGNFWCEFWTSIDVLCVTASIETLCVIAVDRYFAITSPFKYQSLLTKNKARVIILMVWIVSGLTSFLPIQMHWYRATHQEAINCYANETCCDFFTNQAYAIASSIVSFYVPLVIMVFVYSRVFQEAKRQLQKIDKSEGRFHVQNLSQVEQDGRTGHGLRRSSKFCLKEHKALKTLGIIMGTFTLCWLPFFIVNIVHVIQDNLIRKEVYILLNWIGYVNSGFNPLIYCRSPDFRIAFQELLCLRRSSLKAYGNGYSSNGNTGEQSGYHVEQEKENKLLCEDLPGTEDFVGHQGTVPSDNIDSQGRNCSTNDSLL

The target in experiment [3] is Beta-3 adrenergic receptor (Homo sapiens, UniProt P13945). In words: PDSP Secondary Binding target: ADRB3 - Compounds are tested at 10 uM concentration, plate are incubated at room temperature in the dark for 90 minutes. Reaction are stopped by vacuum filtration onto 0.3% polyethyleneimine soaked filter mats using Filtermate harvester. Scintillation cocktail is then melted onto microwave-dried filters on a hot plate and the radio activity is counted in Microbia counter.
Sequence of Beta-3 adrenergic receptor (P13945 whole entry): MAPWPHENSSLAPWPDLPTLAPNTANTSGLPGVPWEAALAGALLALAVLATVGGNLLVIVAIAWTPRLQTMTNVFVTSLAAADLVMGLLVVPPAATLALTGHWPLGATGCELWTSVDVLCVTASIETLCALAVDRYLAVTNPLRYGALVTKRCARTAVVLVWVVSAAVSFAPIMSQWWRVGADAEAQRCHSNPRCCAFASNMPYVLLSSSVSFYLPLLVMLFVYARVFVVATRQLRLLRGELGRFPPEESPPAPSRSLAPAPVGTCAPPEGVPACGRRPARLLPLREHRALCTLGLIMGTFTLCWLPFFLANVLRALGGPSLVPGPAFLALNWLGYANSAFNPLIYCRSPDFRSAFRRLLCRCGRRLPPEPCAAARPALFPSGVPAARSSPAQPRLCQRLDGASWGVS

Experiment [4] addresses 5-hydroxytryptamine receptor 1D (Homo sapiens, UniProt P28221). In words: PDSP Secondary Binding target: HTR1D - Compounds are tested at 10 uM concentration, plate are incubated at room temperature in the dark for 90 minutes. Reaction are stopped by vacuum filtration onto 0.3% polyethyleneimine soaked filter mats using Filtermate harvester. Scintillation cocktail is then melted onto microwave-dried filters on a hot plate and the radio activity is counted in Microbia counter.

Experiment [5] addresses Sigma non-opioid intracellular receptor 1 (Homo sapiens, UniProt Q99720). Briefly: PDSP Secondary Binding target: SIGMAR1 - Compounds are tested at 10 uM concentration, plate are incubated at room temperature in the dark for 90 minutes. Reaction are stopped by vacuum filtration onto 0.3% polyethyleneimine soaked filter mats using Filtermate harvester. Scintillation cocktail is then melted onto microwave-dried filters on a hot plate and the radio activity is counted in Microbia counter.

Experiment [6] has as its target T1, 5-hydroxytryptamine receptor 2C (Homo sapiens, UniProt P28335).
T1 sequence (P28335 whole entry): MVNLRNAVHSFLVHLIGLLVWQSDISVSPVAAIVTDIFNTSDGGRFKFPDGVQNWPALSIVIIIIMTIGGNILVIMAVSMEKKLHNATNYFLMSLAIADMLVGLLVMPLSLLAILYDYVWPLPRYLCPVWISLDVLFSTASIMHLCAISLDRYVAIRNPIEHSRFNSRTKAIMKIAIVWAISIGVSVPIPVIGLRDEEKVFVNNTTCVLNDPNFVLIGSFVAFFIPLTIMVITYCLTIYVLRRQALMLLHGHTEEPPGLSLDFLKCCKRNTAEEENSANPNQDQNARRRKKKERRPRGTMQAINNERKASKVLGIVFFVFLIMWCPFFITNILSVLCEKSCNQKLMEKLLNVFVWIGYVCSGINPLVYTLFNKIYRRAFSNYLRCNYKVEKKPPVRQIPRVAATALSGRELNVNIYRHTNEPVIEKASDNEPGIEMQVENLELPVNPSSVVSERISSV
Briefly: PDSP Secondary Binding target: HTR2C - Compounds are tested at 10 uM concentration, plate are incubated at room temperature in the dark for 90 minutes. Reaction are stopped by vacuum filtration onto 0.3% polyethyleneimine soaked filter mats using Filtermate harvester. Scintillation cocktail is then melted onto microwave-dried filters on a hot plate and the radio activity is counted in Microbia counter.

Experiment [7] concerns the target Sodium-dependent noradrenaline transporter (Homo sapiens, UniProt P23975). Briefly: PDSP Secondary Binding target: SLC6A2 - Compounds are tested at 10 uM concentration, plate are incubated at room temperature in the dark for 90 minutes. Reaction are stopped by vacuum filtration onto 0.3% polyethyleneimine soaked filter mats using Filtermate harvester. Scintillation cocktail is then melted onto microwave-dried filters on a hot plate and the radio activity is counted in Microbia counter.

The target of experiment [8] is 5-hydroxytryptamine receptor 2B (Homo sapiens, UniProt P41595). In words: PDSP Secondary Binding target: HTR2B - Compounds are tested at 10 uM concentration, plate are incubated at room temperature in the dark for 90 minutes. Reaction are stopped by vacuum filtration onto 0.3% polyethyleneimine soaked filter mats using Filtermate harvester. Scintillation cocktail is then melted onto microwave-dried filters on a hot plate and the radio activity is counted in Microbia counter.
Sequence of 5-hydroxytryptamine receptor 2B (P41595 whole entry): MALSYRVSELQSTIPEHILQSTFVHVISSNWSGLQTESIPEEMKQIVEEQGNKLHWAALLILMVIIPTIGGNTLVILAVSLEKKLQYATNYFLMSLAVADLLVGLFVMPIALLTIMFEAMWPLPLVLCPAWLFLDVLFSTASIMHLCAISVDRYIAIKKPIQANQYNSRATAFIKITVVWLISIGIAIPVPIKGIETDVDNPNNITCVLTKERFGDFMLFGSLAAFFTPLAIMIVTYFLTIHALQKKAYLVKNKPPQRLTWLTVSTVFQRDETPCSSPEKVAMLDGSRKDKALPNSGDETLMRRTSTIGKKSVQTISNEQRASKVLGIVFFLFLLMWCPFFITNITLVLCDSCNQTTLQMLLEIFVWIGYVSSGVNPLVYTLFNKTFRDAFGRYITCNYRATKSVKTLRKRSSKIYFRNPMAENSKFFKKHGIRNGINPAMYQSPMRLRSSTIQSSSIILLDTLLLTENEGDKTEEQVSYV

For experiment [9], the target named is 5-hydroxytryptamine receptor 2A (Homo sapiens, UniProt P28223). Briefly: PDSP Secondary Binding target: HTR2A - Compounds are tested at 10 uM concentration, plate are incubated at room temperature in the dark for 90 minutes. Reaction are stopped by vacuum filtration onto 0.3% polyethyleneimine soaked filter mats using Filtermate harvester. Scintillation cocktail is then melted onto microwave-dried filters on a hot plate and the radio activity is counted in Microbia counter.

Experiment [10] has as its target Sodium-dependent serotonin transporter (Homo sapiens, UniProt P31645). Briefly: PDSP Secondary Binding target: SLC6A4 - Compounds are tested at 10 uM concentration, plate are incubated at room temperature in the dark for 90 minutes. Reaction are stopped by vacuum filtration onto 0.3% polyethyleneimine soaked filter mats using Filtermate harvester. Scintillation cocktail is then melted onto microwave-dried filters on a hot plate and the radio activity is counted in Microbia counter.

For a further experiment, the target named is T2, D(4) dopamine receptor (Homo sapiens, UniProt P21917).
T2 sequence (P21917 whole entry): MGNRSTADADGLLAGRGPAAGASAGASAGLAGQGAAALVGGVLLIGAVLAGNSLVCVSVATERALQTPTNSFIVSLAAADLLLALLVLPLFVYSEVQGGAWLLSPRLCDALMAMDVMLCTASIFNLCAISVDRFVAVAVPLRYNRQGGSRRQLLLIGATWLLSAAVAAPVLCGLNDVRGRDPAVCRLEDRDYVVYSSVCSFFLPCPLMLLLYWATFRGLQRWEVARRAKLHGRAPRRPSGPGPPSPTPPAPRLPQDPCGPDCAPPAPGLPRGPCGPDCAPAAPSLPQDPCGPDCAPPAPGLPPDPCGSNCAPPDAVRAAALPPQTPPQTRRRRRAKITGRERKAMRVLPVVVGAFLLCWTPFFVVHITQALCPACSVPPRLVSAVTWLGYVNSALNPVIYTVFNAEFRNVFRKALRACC
Briefly: PDSP Secondary Binding target: DRD4 - Compounds are tested at 10 uM concentration, plate are incubated at room temperature in the dark for 90 minutes. Reaction are stopped by vacuum filtration onto 0.3% polyethyleneimine soaked filter mats using Filtermate harvester. Scintillation cocktail is then melted onto microwave-dried filters on a hot plate and the radio activity is counted in Microbia counter.

The target of experiment [11] is 5-hydroxytryptamine receptor 7 (Homo sapiens, UniProt P34969). In words: PDSP Secondary Binding target: HTR7 - Compounds are tested at 10 uM concentration, plate are incubated at room temperature in the dark for 90 minutes. Reaction are stopped by vacuum filtration onto 0.3% polyethyleneimine soaked filter mats using Filtermate harvester. Scintillation cocktail is then melted onto microwave-dried filters on a hot plate and the radio activity is counted in Microbia counter.
Sequence of 5-hydroxytryptamine receptor 7 (P34969 whole entry): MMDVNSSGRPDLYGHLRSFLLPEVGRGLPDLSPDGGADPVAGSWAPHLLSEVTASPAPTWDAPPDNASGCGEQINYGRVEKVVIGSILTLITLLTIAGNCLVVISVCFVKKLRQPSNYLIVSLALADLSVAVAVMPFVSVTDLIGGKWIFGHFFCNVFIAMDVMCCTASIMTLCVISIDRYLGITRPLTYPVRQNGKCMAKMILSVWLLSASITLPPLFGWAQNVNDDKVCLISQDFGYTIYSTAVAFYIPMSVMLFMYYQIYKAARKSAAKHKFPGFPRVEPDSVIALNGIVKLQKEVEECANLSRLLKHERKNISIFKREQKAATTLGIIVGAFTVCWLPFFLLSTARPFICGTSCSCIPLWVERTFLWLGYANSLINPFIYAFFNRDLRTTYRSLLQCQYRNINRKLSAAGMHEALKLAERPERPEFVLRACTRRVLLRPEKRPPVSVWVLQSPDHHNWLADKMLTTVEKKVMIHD

Experiment [12] deals with 5-hydroxytryptamine receptor 1E (Homo sapiens, UniProt P28566). Briefly: PDSP Secondary Binding target: HTR1E - Compounds are tested at 10 uM concentration, plate are incubated at room temperature in the dark for 90 minutes. Reaction are stopped by vacuum filtration onto 0.3% polyethyleneimine soaked filter mats using Filtermate harvester. Scintillation cocktail is then melted onto microwave-dried filters on a hot plate and the radio activity is counted in Microbia counter.

Experiment [13] concerns the target 5-hydroxytryptamine receptor 6 (Homo sapiens, UniProt P50406). Briefly: PDSP Secondary Binding target: HTR6 - Compounds are tested at 10 uM concentration, plate are incubated at room temperature in the dark for 90 minutes. Reaction are stopped by vacuum filtration onto 0.3% polyethyleneimine soaked filter mats using Filtermate harvester. Scintillation cocktail is then melted onto microwave-dried filters on a hot plate and the radio activity is counted in Microbia counter.

Another experiment concerns the target D(2) dopamine receptor (Homo sapiens, UniProt P14416). Briefly: PDSP Secondary Binding target: DRD2 - Compounds are tested at 10 uM concentration, plate are incubated at room temperature in the dark for 90 minutes. Reaction are stopped by vacuum filtration onto 0.3% polyethyleneimine soaked filter mats using Filtermate harvester. Scintillation cocktail is then melted onto microwave-dried filters on a hot plate and the radio activity is counted in Microbia counter.

Experiment [14] deals with 5-hydroxytryptamine receptor 5A (Homo sapiens, UniProt P47898). Briefly: PDSP Secondary Binding target: HTR5A - Compounds are tested at 10 uM concentration, plate are incubated at room temperature in the dark for 90 minutes. Reaction are stopped by vacuum filtration onto 0.3% polyethyleneimine soaked filter mats using Filtermate harvester. Scintillation cocktail is then melted onto microwave-dried filters on a hot plate and the radio activity is counted in Microbia counter.
Sequence of 5-hydroxytryptamine receptor 5A (P47898 whole entry): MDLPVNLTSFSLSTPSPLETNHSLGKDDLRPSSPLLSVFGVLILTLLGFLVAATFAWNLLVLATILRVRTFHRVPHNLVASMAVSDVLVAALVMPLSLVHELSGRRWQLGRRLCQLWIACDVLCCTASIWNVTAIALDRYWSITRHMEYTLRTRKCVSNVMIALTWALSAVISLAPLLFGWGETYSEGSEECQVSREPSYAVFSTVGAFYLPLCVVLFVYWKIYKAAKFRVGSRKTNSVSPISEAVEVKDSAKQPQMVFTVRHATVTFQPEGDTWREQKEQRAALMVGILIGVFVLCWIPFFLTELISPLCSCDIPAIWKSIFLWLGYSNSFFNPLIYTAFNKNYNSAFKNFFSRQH

For experiment [15], the target named is 5-hydroxytryptamine receptor 1B (Homo sapiens, UniProt P28222). In words: PDSP Secondary Binding target: HTR1B - Compounds are tested at 10 uM concentration, plate are incubated at room temperature in the dark for 90 minutes. Reaction are stopped by vacuum filtration onto 0.3% polyethyleneimine soaked filter mats using Filtermate harvester. Scintillation cocktail is then melted onto microwave-dried filters on a hot plate and the radio activity is counted in Microbia counter.
Sequence of 5-hydroxytryptamine receptor 1B (P28222 whole entry): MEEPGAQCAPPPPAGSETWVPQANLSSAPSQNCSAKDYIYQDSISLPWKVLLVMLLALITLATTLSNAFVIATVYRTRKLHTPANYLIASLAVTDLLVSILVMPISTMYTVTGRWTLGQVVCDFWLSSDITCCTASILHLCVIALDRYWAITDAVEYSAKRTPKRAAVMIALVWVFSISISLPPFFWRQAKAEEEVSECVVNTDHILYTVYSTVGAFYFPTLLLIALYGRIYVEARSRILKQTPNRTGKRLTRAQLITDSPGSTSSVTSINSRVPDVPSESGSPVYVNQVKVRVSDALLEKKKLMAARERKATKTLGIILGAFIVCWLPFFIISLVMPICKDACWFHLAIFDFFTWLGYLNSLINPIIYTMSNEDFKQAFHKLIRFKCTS

The target of experiment [16] is T3, Alpha-2A adrenergic receptor (Homo sapiens, UniProt P08913).
T3 sequence (P08913 whole entry): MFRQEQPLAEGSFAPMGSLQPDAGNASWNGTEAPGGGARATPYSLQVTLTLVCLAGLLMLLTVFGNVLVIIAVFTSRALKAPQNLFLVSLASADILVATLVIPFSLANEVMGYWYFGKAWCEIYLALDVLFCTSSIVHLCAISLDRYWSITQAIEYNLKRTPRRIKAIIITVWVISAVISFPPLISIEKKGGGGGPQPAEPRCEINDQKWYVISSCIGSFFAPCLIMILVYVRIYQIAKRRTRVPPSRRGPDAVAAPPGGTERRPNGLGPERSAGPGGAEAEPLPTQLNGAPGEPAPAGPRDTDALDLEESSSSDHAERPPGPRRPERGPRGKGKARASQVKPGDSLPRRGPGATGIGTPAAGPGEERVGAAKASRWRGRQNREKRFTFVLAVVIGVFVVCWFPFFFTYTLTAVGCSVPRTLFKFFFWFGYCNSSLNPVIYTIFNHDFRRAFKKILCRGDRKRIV
In words: PDSP Secondary Binding target: ADRA2A - Compounds are tested at 10 uM concentration, plate are incubated at room temperature in the dark for 90 minutes. Reaction are stopped by vacuum filtration onto 0.3% polyethyleneimine soaked filter mats using Filtermate harvester. Scintillation cocktail is then melted onto microwave-dried filters on a hot plate and the radio activity is counted in Microbia counter.

A further experiment concerns the target D(3) dopamine receptor (Homo sapiens, UniProt P35462). Briefly: PDSP Secondary Binding target: DRD3 - Compounds are tested at 10 uM concentration, plate are incubated at room temperature in the dark for 90 minutes. Reaction are stopped by vacuum filtration onto 0.3% polyethyleneimine soaked filter mats using Filtermate harvester. Scintillation cocktail is then melted onto microwave-dried filters on a hot plate and the radio activity is counted in Microbia counter.

Some results are limits rather than exact numbers.

Here are results for 4 molecules from ChEMBL document CHEMBL5442175, “EUbOPEN Chemogenomics Library - PDSP Secondary Binding” (2024).

Sequence of Sigma intracellular receptor 2 (Q5BJF2 whole entry): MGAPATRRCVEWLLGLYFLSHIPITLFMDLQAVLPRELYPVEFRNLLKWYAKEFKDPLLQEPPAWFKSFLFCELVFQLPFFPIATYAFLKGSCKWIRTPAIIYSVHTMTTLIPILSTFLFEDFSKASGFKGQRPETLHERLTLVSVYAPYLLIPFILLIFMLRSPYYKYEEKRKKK
Sequence of Sodium-dependent noradrenaline transporter (P23975 whole entry): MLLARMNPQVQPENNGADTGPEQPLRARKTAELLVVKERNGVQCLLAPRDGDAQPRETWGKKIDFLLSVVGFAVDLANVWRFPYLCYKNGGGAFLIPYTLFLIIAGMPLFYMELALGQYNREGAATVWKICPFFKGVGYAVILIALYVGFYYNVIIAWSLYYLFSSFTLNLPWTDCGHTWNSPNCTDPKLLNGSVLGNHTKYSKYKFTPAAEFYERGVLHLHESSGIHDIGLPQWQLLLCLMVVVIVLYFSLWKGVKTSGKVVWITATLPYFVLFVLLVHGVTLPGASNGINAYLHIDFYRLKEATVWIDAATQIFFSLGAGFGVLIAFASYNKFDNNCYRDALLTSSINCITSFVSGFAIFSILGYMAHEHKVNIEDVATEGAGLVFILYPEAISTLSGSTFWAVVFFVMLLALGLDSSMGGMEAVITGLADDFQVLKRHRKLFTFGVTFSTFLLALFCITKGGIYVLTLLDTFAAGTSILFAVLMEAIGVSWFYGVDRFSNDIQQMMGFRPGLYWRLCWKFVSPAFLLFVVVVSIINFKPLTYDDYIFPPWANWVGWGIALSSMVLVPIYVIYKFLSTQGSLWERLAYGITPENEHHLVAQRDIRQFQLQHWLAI
Sequence of 5-hydroxytryptamine receptor 1D (P28221 whole entry): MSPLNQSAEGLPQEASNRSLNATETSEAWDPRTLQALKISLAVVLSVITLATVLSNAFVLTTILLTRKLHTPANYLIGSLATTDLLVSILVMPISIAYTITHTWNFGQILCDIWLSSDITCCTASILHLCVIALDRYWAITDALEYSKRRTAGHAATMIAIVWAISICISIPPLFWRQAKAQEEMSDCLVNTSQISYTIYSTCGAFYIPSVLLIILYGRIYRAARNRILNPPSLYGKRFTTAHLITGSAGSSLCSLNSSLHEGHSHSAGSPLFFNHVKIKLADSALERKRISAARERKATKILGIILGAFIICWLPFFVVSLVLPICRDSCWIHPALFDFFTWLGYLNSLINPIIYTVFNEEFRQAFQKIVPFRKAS
Sequence of Sodium-dependent serotonin transporter (P31645 whole entry): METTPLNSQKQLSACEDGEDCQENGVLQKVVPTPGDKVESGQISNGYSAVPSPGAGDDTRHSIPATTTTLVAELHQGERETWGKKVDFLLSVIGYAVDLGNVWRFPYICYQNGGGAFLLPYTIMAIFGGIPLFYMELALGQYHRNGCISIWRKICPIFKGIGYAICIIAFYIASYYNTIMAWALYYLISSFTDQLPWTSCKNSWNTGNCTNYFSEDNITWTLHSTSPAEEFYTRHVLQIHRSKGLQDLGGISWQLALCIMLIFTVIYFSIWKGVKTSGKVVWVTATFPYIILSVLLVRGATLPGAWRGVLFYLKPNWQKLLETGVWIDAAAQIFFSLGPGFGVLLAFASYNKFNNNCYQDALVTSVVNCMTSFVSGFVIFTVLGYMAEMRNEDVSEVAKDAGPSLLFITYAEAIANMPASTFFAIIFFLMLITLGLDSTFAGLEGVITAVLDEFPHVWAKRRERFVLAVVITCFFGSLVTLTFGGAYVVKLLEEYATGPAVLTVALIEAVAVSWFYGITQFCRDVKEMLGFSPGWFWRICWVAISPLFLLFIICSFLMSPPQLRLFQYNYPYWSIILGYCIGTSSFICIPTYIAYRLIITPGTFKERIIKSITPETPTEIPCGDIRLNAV
Sequence of D(3) dopamine receptor (P35462 whole entry): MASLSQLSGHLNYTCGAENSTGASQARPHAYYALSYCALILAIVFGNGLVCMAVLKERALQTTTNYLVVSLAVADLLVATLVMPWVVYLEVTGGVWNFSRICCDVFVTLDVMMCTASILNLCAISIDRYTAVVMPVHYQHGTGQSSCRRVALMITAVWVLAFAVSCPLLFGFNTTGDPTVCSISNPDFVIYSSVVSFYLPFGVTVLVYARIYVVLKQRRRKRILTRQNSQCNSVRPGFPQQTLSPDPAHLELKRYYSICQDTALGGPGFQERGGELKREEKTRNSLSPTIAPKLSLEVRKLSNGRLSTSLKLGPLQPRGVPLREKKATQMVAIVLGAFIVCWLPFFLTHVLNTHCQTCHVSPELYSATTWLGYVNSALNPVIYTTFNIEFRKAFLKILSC

By Ki is commonly meant a dissociation constant, usually derived from enzyme kinetics or from competition with a known ligand. Low readings indicate higher affinity, high ones lower affinity. With `CN(C)S(=O)(=O)c1ccc(NC(=S)N2CCC(C(O)(c3ccccc3)c3ccccc3)CC2)cc1`, the inhibitory constant (Ki) was found to be 0.242 µM in [1], 0.969 µM on Translocator protein, 5.21 µM in [2] and 3.5 µM in [3].

For the molecule `N#Cc1c[nH]c2c(C(=O)N3CCN(CCc4ccc(F)cc4)CC3)cccc12` [PRUVANSERIN], the Ki in experiment [4] was determined as 0.588 µM; in experiment [1], 1.18 µM; in experiment [5] it was 0.178 µM; in [6] it was 1.47 µM; in [7], 2.52 µM; in experiment [8] it was 1.04 µM. The inhibition constant Ki in [9] was 0.00264 µM; in experiment [10] it was 1.1 µM; at D(4) dopamine receptor, 0.181 µM; in [2] it was over 10 µM; in [11], 2.39 µM.

As to `NCCc1c[nH]c2ccc(C(N)=O)cc12`, the Ki in experiment [12] was 0.949 µM; in experiment [1], 4.57 µM; in [7] it was 2.65 µM; in experiment [13], 0.325 µM; at D(2) dopamine receptor, over 10 µM; in [14], 0.00864 µM. Also, the inhibition constant (Ki) in experiment [15] worked out at 0.0112 µM; in experiment [16], 2.16 µM.

As to `CS(=O)(=O)NC[C@H]1CC[C@H](Nc2nc3c(s2)CCSc2ccccc2-3)CC1`, the Ki in experiment [4] turned out to be 1.61 µM; in experiment [1], 1.72 µM; on D(3) dopamine receptor, 0.498 µM; in experiment [8], 0.4 µM; in experiment [14], 1.04 µM; in experiment [2], 7.54 µM.
